Experimental data from US10385024B2, “Compounds and methods for inhibiting NHE-mediated antiport in the treatment of disorders associated with fluid retention or salt overload and gastrointestinal tract disorders” (Ardelyx, Inc., priority 2012, dated 2019).

Columns and labels:
[1] = biological target: T1, human NHE-3 (Homo sapiens, UniProt P48764); assay: Cell-based assay of NHE-3 activity (human NHE3 inhibition assay); conditions: OK cells with human NHE-3 gene, BCECF pH dye, 0-30 μM test compound
T1 construct: expressed in transfected cells; host or cells: Opossum kidney (OK) cells (ATCC), transfected by electroporation
T1 sequence (P48764 26-834): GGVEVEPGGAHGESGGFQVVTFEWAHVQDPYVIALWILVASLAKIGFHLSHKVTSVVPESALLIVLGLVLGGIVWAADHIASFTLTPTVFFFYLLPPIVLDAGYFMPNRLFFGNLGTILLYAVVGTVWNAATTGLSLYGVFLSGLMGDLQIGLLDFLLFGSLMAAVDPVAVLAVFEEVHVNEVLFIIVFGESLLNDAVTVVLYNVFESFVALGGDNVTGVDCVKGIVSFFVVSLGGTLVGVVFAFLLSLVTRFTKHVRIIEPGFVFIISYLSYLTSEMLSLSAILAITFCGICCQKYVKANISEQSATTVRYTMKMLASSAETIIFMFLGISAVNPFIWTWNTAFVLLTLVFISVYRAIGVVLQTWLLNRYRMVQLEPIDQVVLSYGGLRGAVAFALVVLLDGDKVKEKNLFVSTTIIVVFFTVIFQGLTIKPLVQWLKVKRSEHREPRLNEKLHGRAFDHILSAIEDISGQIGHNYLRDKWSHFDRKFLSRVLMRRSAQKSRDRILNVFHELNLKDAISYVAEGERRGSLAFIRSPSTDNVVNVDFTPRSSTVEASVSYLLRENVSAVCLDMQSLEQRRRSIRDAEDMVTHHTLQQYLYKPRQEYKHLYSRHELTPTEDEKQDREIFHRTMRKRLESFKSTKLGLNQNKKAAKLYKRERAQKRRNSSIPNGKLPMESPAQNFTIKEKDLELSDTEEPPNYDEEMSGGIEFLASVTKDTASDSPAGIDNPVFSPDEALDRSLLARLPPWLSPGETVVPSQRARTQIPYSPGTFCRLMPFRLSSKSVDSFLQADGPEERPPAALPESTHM
Procedure, shortened: (§1)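 Opossum kidney cells electroporated with rat or human NHE-3, loaded with 5 μM BCECF-AM in NH4Cl-HEPES pH 7.4 for 30 min at RT, then acidified 10 min in Na+-free choline HEPES. Na+-dependent pH recovery rates from BCECF fluorescence, averaged over ≥2 replicates, gave pIC50.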

[2] = biological target: T2, Rat NHE-3 (Rattus norvegicus, UniProt P26433); assay: Cell-based assay of NHE-3 activity (rat NHE-3 prompt inhibition); conditions: OK cells with rat NHE-3 gene, compound present during pH recovery
T2 construct: expressed in transfected cells; host or cells: Opossum kidney (OK) cells (ATCC), transfected by electroporation
Procedure, shortened: as §1

[3] = biological target: T2, Rat NHE-3; assay: Cell-based assay of NHE-3 activity (persistent inhibition, after washout); conditions: OK cells with rat NHE-3 gene, 60 min incubation, recovery initiated 40 min after compound washout
Procedure, shortened: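 OK cells transiently expressing rat NHE-3 were exposed to 0-30 μM compound in NaCl-HEPES pH 7.4 for 60 min, then washed free of drug before NH4Cl/BCECF-AM loading and acid-loading in Na+-free choline buffer. Na+-dependent pH recovery rates (mean of ≥2 replicates) gave pIC50.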

[4] = test system: absorption of sodium from the intestinal lumen; assay: Inhibition of intestinal sodium absorption (urinary sodium and fecal form); type: in vivo, Sprague-Dawley rats; conditions: rat; for response vs control in vivo at 3 mg/kg: 3 mg/kg oral gavage, urine 16 h post-dose, asterisks = significance vs vehicle (*P<0.05, **P<0.01, ***P<0.001), read-out: uNa (% of vehicle)
Procedure, shortened: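 Sprague-Dawley rats (8 weeks, n=6) dosed by oral gavage with compound or water vehicle (10 mL/kg) in late afternoon, then housed in metabolic cages. Over 16 h, urinary sodium measured by ion chromatography and expressed as % of vehicle mean; fecal form scored 1–5, averaged from two observations.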

T2 sequence (P26433 29-831): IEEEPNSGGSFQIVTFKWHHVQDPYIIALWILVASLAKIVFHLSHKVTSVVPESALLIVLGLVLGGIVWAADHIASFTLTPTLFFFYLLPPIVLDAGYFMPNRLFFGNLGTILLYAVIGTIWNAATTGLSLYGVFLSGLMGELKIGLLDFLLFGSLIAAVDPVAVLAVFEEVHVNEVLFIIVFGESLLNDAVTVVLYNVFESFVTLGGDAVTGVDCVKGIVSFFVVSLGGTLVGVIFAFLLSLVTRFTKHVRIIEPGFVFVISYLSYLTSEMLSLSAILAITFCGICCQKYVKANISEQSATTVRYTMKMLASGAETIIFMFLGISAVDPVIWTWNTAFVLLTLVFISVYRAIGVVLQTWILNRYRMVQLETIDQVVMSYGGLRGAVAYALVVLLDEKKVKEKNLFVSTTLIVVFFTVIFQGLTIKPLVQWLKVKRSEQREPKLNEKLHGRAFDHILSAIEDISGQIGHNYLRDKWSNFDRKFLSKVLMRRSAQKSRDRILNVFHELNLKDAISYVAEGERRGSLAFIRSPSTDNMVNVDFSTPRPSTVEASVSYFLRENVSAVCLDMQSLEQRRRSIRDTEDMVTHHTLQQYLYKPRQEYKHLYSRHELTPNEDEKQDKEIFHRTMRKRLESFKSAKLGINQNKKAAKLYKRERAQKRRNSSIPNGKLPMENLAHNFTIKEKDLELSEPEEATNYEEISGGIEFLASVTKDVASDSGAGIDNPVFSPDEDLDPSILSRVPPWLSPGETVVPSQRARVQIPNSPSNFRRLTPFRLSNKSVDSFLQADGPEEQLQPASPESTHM

Row | SMILES | Human NHE3 pIC50 [1] | Rat NHE3 pIC50 (prompt) [2] | Rat NHE3 pIC50 (persistent) [3] | response vs control in vivo at 3 mg/kg [4] [%] | FFS ([4]; fecal form score, scale 1 (normal pellet) to 5 (liquid fecal streams), group average, 3 mg/kg oral, 16 h post-dose, vehicle = 1) | IC50 ([1]; read-out: Human NHE3 pIC50 (converted)) [nM] | IC50 ([2]; read-out: Rat NHE3 pIC50 (prompt) (converted)) [nM] | IC50 ([3]; read-out: Rat NHE3 pIC50 (persistent) (converted)) [nM]
1 | CN1Cc2c(Cl)cc(Cl)cc2[C@H](c2cccc(S(=O)(=O)NCCOCCOCCNC(=O)NCCN(CCNC(=O)NCCOCCOCCNS(=O)(=O)c3cccc([C@@H]4CN(C)Cc5c(Cl)cc(Cl)cc54)c3)CCNC(=O)NCCOCCOCCNS(=O)(=O)c3cccc([C@@H]4CN(C)Cc5c(Cl)cc(Cl)cc54)c3)c2)C1 [Example 53] | B (B NHE3 pIC50 5-7) | B (B NHE3 pIC50 5-7) | C (C NHE3 pIC50 > 7) | 35 to 75 |  |  |  | 
2 | CN1Cc2c(Cl)cc(Cl)cc2[C@H](c2cccc(S(=O)(=O)N(C)CCOCCOCCNC(=O)NCCCN(CCCNC(=O)NCCOCCOCCN(C)S(=O)(=O)c3cccc([C@@H]4CN(C)Cc5c(Cl)cc(Cl)cc54)c3)CCCNC(=O)NCCOCCOCCN(C)S(=O)(=O)c3cccc([C@@H]4CN(C)Cc5c(Cl)cc(Cl)cc54)c3)c2)C1 [Example 54] | C (C NHE3 pIC50 > 7) | B (B NHE3 pIC50 5-7) | C (C NHE3 pIC50 > 7) | > 75 |  |  |  | 
3 | CN1Cc2c(Cl)cc(Cl)cc2[C@H](c2cccc(S(=O)(=O)N(CCO)CCOCCOCCNC(=O)NCCCN(CCCNC(=O)NCCOCCOCCN(CCO)S(=O)(=O)c3cccc([C@@H]4CN(C)Cc5c(Cl)cc(Cl)cc54)c3)CCCNC(=O)NCCOCCOCCN(CCO)S(=O)(=O)c3cccc([C@@H]4CN(C)Cc5c(Cl)cc(Cl)cc54)c3)c2)C1 [Example 56] | C (C NHE3 pIC50 > 7) | C (C NHE3 pIC50 > 7) | C (C NHE3 pIC50 > 7) | 35 to 75 |  |  |  | 
4 | CCN(CCOCCOCCNC(=O)NCCCN(CCCNC(=O)NCCOCCOCCN(CC)S(=O)(=O)c1cccc([C@@H]2CN(C)Cc3c(Cl)cc(Cl)cc32)c1)CCCNC(=O)NCCOCCOCCN(CC)S(=O)(=O)c1cccc([C@@H]2CN(C)Cc3c(Cl)cc(Cl)cc32)c1)S(=O)(=O)c1cccc([C@@H]2CN(C)Cc3c(Cl)cc(Cl)cc32)c1 [Example 57] | C (C NHE3 pIC50 > 7) | B (B NHE3 pIC50 5-7) | C (C NHE3 pIC50 > 7) | 35 to 75 |  |  |  | 
5 | CN1Cc2c(Cl)cc(Cl)cc2[C@H](c2cccc(S(=O)(=O)NCCOCCOCCNC(=O)NCCC[N+](C)(CCCNC(=O)NCCOCCOCCNS(=O)(=O)c3cccc([C@@H]4CN(C)Cc5c(Cl)cc(Cl)cc54)c3)CCCNC(=O)NCCOCCOCCNS(=O)(=O)c3cccc([C@@H]4CN(C)Cc5c(Cl)cc(Cl)cc54)c3)c2)C1 [Example 58] | C (C NHE3 pIC50 > 7) | C (C NHE3 pIC50 > 7) | C (C NHE3 pIC50 > 7) | 35 to 75 |  |  |  | 
6 | CN1Cc2c(Cl)cc(Cl)cc2[C@H](c2cccc(S(=O)(=O)NCCOCCOCCNC(=O)NCCCC(CCCNC(=O)NCCOCCOCCNS(=O)(=O)c3cccc([C@@H]4CN(C)Cc5c(Cl)cc(Cl)cc54)c3)(CCCNC(=O)NCCOCCOCCNS(=O)(=O)c3cccc([C@@H]4CN(C)Cc5c(Cl)cc(Cl)cc54)c3)NC(=O)CCC(=O)O)c2)C1 [Example 63] | C (C NHE3 pIC50 > 7) | C (C NHE3 pIC50 > 7) | C (C NHE3 pIC50 > 7) | 35 to 75 |  |  |  | 
7 | CN1Cc2c(Cl)cc(Cl)cc2[C@H](c2cccc(S(=O)(=O)NCCOCCOCCNC(=O)NCCCC(CCCNC(=O)NCCOCCOCCNS(=O)(=O)c3cccc([C@@H]4CN(C)Cc5c(Cl)cc(Cl)cc54)c3)(CCCNC(=O)NCCOCCOCCNS(=O)(=O)c3cccc([C@@H]4CN(C)Cc5c(Cl)cc(Cl)cc54)c3)NC(=O)COCC(=O)O)c2)C1 [Example 64] | C (C NHE3 pIC50 > 7) | C (C NHE3 pIC50 > 7) | C (C NHE3 pIC50 > 7) | 35 to 75 |  |  |  | 
8 | CN1Cc2c(Cl)cc(Cl)cc2[C@H](c2cccc(S(=O)(=O)NCCOCCOCCNC(=O)NCCC(CCNC(=O)NCCOCCOCCNS(=O)(=O)c3cccc([C@@H]4CN(C)Cc5c(Cl)cc(Cl)cc54)c3)(CCNC(=O)NCCOCCOCCNS(=O)(=O)c3cccc([C@@H]4CN(C)Cc5c(Cl)cc(Cl)cc54)c3)NC(=O)COCC(=O)O)c2)C1 [Example 66] | C (C NHE3 pIC50 > 7) | C (C NHE3 pIC50 > 7) | C (C NHE3 pIC50 > 7) | < 35 |  |  |  | 
9 | CN1Cc2c(Cl)cc(Cl)cc2[C@H](c2cccc(S(=O)(=O)NCCOCCOCCN(C)C(=O)CCC(N)(CCC(=O)N(C)CCOCCOCCNS(=O)(=O)c3cccc([C@@H]4CN(C)Cc5c(Cl)cc(Cl)cc54)c3)CCC(=O)N(C)CCOCCOCCNS(=O)(=O)c3cccc([C@@H]4CN(C)Cc5c(Cl)cc(Cl)cc54)c3)c2)C1 [Example 67] | C (C NHE3 pIC50 > 7) | C (C NHE3 pIC50 > 7) | C (C NHE3 pIC50 > 7) | > 75 |  |  |  | 
10 | CN(C)CC(=O)NC(CCC(=O)N(C)CCOCCOCCNS(=O)(=O)c1cccc([C@@H]2CN(C)Cc3c(Cl)cc(Cl)cc32)c1)(CCC(=O)N(C)CCOCCOCCNS(=O)(=O)c1cccc([C@@H]2CN(C)Cc3c(Cl)cc(Cl)cc32)c1)CCC(=O)N(C)CCOCCOCCNS(=O)(=O)c1cccc([C@@H]2CN(C)Cc3c(Cl)cc(Cl)cc32)c1 [Example 68] | C (C NHE3 pIC50 > 7) | C (C NHE3 pIC50 > 7) | C (C NHE3 pIC50 > 7) | 35 to 75 |  |  |  | 
11 | CN1Cc2c(Cl)cc(Cl)cc2[C@H](c2cccc(S(=O)(=O)NCCOCCOCCN(C)C(=O)CCC(CCC(=O)N(C)CCOCCOCCNS(=O)(=O)c3cccc([C@@H]4CN(C)Cc5c(Cl)cc(Cl)cc54)c3)(CCC(=O)N(C)CCOCCOCCNS(=O)(=O)c3cccc([C@@H]4CN(C)Cc5c(Cl)cc(Cl)cc54)c3)NC(=O)COCC(=O)O)c2)C1 [Example 70] | C (C NHE3 pIC50 > 7) | C (C NHE3 pIC50 > 7) | C (C NHE3 pIC50 > 7) | 35 to 75 | 2 |  |  | 
12 | CC(=O)C(CCC(=O)NCCOCCOCCNS(=O)(=O)c1cccc([C@@H]2CN(C)Cc3c(Cl)cc(Cl)cc32)c1)(CCC(=O)NCCOCCOCCNS(=O)(=O)c1cccc([C@@H]2CN(C)Cc3c(Cl)cc(Cl)cc32)c1)CCC(=O)NCCOCCOCCNS(=O)(=O)c1cccc([C@@H]2CN(C)Cc3c(Cl)cc(Cl)cc32)c1 [Example 72, 4-acetyl-N1,N7-bis(2-(2-(2-(3-((S)-6,8-dichloro-2-methyl-1,2,3,4-tetrahydroisoquinolin-4-yl)phenylsulfonamido)ethoxy)ethoxy)ethyl)-4-(3-(2-(2-(2-(3-((S)-6,8-dichloro-2-methyl-1,2,3,4-tetrahydroisoquinolin-4-yl)phenylsulfonamido)ethoxy)ethoxy)ethylamino)-3-oxopropyl)heptanediamide] |  |  |  | 35 to 75 |  | 100 to 10000 | 100 to 10000 | < 100
